The supplement of paper PMC11061612

Columns and labels:
Assay in all cases: combination Emax (second highest fraction inhibited in the dose matrix, 72 h); higher = more inhibition; extreme values may be limits of the assay
[1] = tested on: OV-56 (Ovarian Carcinoma)
In short: (§1)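 After 24 hours at 37°C and 5% CO2 in 1536-well plates, cells in DMEM/F12 or RPMI plus 10% FBS received two-drug dose matrices for 72 hours. Viability came from CellTiter-Glo 2.0 luminescence and was scaled as inhibition, anchored at 0 by vehicle wells and at 1 by blank wells. Combination Emax is taken as the second-highest inhibition in the matrix, and Bliss excess as the observed combination effect less EA + EB − EA·EB, with EA and EB the single-agent effects.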

[2] = tested on: TGBC1TKB (Biliary Tract Carcinoma)
In short: as §1

A673 (Ewing's Sarcoma) = tested on: A673 (Ewing's Sarcoma)
In short: as §1

NCI-H2722 (Mesothelioma) = tested on: NCI-H2722 (Mesothelioma)
In short: as §1

[3] = tested on: WSU-NHL (B-Cell Non-Hodgkin's Lymphoma)
In short: as §1

[4] = tested on: NCI-H524 (Small Cell Lung Carcinoma)
In short: as §1

[5] = tested on: NCI-H1568 (Lung Adenocarcinoma)
In short: as §1

[6] = tested on: LNZTA3WT4 (Low Grade Glioma)
In short: as §1

[7] = tested on: HuCCT1 (Biliary Tract Carcinoma)
In short: as §1

[8] = tested on: ESS-1 (Other Solid Carcinomas)
In short: as §1

[9] = tested on: YAPC (Pancreatic Carcinoma)
In short: as §1

[10] = tested on: ALL-PO (B-Lymphoblastic Leukemia)
In short: as §1

[11] = tested on: SNU-16 (Gastric Carcinoma)
In short: as §1

[12] = tested on: HuH-7 (Hepatocellular Carcinoma)
In short: as §1

NCI-H2052 (Mesothelioma) = tested on: NCI-H2052 (Mesothelioma)
In short: as §1

[13] = tested on: OVCAR-5 (Ovarian Carcinoma)
In short: as §1

[14] = tested on: BE-13 (T-Lymphoblastic Leukemia)
In short: as §1

[15] = tested on: SNU-449 (Hepatocellular Carcinoma)
In short: as §1

[16] = tested on: SW1710 (Bladder Carcinoma)
In short: as §1

LOXIMVI (Melanoma) = tested on: LOXIMVI (Melanoma)
In short: as §1

Structure (SMILES)	combination Emax [1]	combination Emax [2]	combination Emax (A673 (Ewing's Sarcoma))	combination Emax (NCI-H2722 (Mesothelioma))	combination Emax [3]	combination Emax [4]	combination Emax [5]	combination Emax [6]	combination Emax [7]	combination Emax [8]	combination Emax [9]	combination Emax [10]	combination Emax [11]	combination Emax [12]	combination Emax (NCI-H2052 (Mesothelioma))	combination Emax [13]	combination Emax [14]	combination Emax [15]	combination Emax [16]	combination Emax (LOXIMVI (Melanoma))
CN(CCO)CC[C@H](CSc1ccccc1)Nc1ccc(S(=O)(=O)NC(=O)c2ccc(N3CCC([C@@H](O)c4ccccc4-c4ccc(Cl)cc4)CC3)cc2)cc1S(=O)(=O)C(F)(F)F [AZD4320] + C1CN(CCC1(C(=O)N[C@@H](CCO)C2=CC=C(C=C2)Cl)N)C3=NC=NC4=C3C=CN4 [Capivasertib] (first compound max 1 µM, 7x7, partner max 3 µM)	0.0773	0.466	0.905	0.22	1	0.765	0.142	0.218	0.121	0.579	0.0702	0.97	0.27	0.197	0.229	0.17	0.994	0.0999	0.302	0.202
Cc1c2c(nn1C)CSCc1cc(n(C)n1)CSc1cc(c3ccccc3c1)OCCCc1c(C(=O)O)n(C)c3c-2c(Cl)ccc13 [AZD5991] + C=CCn1c(=O)c2cnc(Nc3ccc(N4CCN(C)CC4)cc3)nc2n1-c1cccc(C(C)(C)O)n1 [AZD1775] (first compound max 1 µM, partner max 1 µM)	0.244	0.303	0.614	0.397	0.954	0.816	0.434	0.823	0.759	0.988	0.416	1	1	0.448	0.346	0.343	1	0.302	0.344	0.624
CC(=O)c1c(C)c2cnc(Nc3ccc(N4CCNCC4)cn3)nc2n(C2CCCC2)c1=O [Palbociclib] + CC1(C)CCC(CN2CCN(c3ccc(C(=O)NS(=O)(=O)c4ccc(NCC5CCOCC5)c([N+](=O)[O-])c4)c(Oc4cnc5[nH]ccc5c4)c3)CC2)=C(c2ccc(Cl)cc2)C1 [Venetoclax] (first compound max 10 µM, 7x7, partner max 1 µM)	0.117	0.033	0.136	0.118	0.92	0.685	0.423	0.307	0.309	0.294	0.165	0.931	0.699	0.0832	0.133	0.346	0.588	0.272	0.246	0.515
COc1cccc(OCCCN)c1-c1cc(Nc2cnc(C#N)cn2)n[nH]1 [Prexasertib] + CN(C)CCCOc1ccc(-c2ccc3ncc4c(c3c2)n(C2CCOCC2)c(=O)n4C)cn1 [AZD0156] (first compound max 1 µM, 7x7, partner max 1 µM)	0.895	0.361	0.905	0.193	1	0.97	0.538	0.885	0.819	1	0.559	0.979	1	0.347	0.556	0.838	0.965	0.326	0.794	0.862
CS(=O)(=O)CCNCc1ccc(-c2ccc3ncnc(Nc4ccc(OCc5cccc(F)c5)c(Cl)c4)c3c2)o1 [Lapatinib] + C[C@@H](Oc1cc(-c2cnn(C3CCNCC3)c2)cnc1N)c1c(Cl)ccc(F)c1Cl [Crizotinib] (first compound max 10 µM, 7x7, partner max 10 µM)	0.872	0.616	0.808	0.449	0.966	0.952	0.952	0.872	0.883	0.917	0.636	1	0.973	0.925	0.61	0.834	0.988	0.827	0.846	0.977
CC1(C)CCC(CN2CCN(c3ccc(C(=O)NS(=O)(=O)c4ccc(NCC5CCOCC5)c([N+](=O)[O-])c4)c(Oc4cnc5[nH]ccc5c4)c3)CC2)=C(c2ccc(Cl)cc2)C1 [Venetoclax] + C[C@@H]1COCCN1C2=NC(=NC(=C2)C3(CC3)[S@](=N)(=O)C)C4=C5C=CNC5=NC=C4 [AZD6738] (first compound max 1 µM, 7x7, partner max 10 µM)	0.566	0.46	0.89	0.384	0.983	0.748	0.553	0.789	0.664	0.979	0.317	1	0.973	0.424	0.431	0.768	0.936	0.26	0.516	0.723
C=CCn1c(=O)c2cnc(Nc3ccc(N4CCN(C)CC4)cc3)nc2n1-c1cccc(C(C)(C)O)n1 [AZD1775] + O=C(c1cc(Cc2n[nH]c(=O)c3ccccc23)ccc1F)N1CCN(C(=O)C2CC2)CC1 [Olaparib] (first compound max 1 µM, partner max 10 µM)	0.261	0.258	0.822	0.346	1	0.789	0.422	0.806	0.818	1	0.432	0.951	0.931	0.304	0.467	0.447	0.984	0.22	0.383	0.638
CC1(C)CCC(CN2CCN(c3ccc(C(=O)NS(=O)(=O)c4ccc(NCC5CCOCC5)c([N+](=O)[O-])c4)c(Oc4cnc5[nH]ccc5c4)c3)CC2)=C(c2ccc(Cl)cc2)C1 [Venetoclax] + COc1cc(Nc2ncc3c(n2)-c2ccc(Cl)cc2C(c2c(F)cccc2OC)=NC3)ccc1C(=O)O [Alisertib] (first compound max 1 µM, 7x7, partner max 10 µM)	0.225	0.403	0.835	0.281	0.985	0.991	0.259	0.472	0.365	0.957	0.142	1	0.955	0.791	0.425	0.335	0.918	0.313	0.306	0.5
CCN(CCO)CCCOc1ccc2c(Nc3cc(CC(=O)Nc4cccc(F)c4)[nH]n3)ncnc2c1 [AZD2811] + C=CCn1c(=O)c2cnc(Nc3ccc(N4CCN(C)CC4)cc3)nc2n1-c1cccc(C(C)(C)O)n1 [AZD1775] (first compound max 1 µM, partner max 1 µM)	0.139	0.234	0.708	0.278	1	0.976	0.429	0.792	0.739	1	0.408	0.981	0.916	0.132	0.38	0.273	0.982	0.249	0.317	0.959
COc1cccc(OCCCN)c1-c1cc(Nc2cnc(C#N)cn2)n[nH]1 [Prexasertib] + Cc1cc2ncnn2cc1Nc1ncc2c(n1)n(C1CCOCC1)c(=O)n2C [AZD7648] (first compound max 1 µM, 7x7, partner max 10 µM)	0.88	0.483	0.875	0.216	1	0.988	0.54	0.9	0.83	1	0.585	0.993	0.998	0.329	0.649	0.829	0.952	0.308	0.728	0.784
CN(CCO)CC[C@H](CSc1ccccc1)Nc1ccc(S(=O)(=O)NC(=O)c2ccc(N3CCC([C@@H](O)c4ccccc4-c4ccc(Cl)cc4)CC3)cc2)cc1S(=O)(=O)C(F)(F)F [AZD4320] + C=CCn1c(=O)c2cnc(Nc3ccc(N4CCN(C)CC4)cc3)nc2n1-c1cccc(C(C)(C)O)n1 [AZD1775] (first compound max 1 µM, partner max 1 µM)	0.165	0.508	1	0.55	0.995	0.952	0.57	0.889	0.807	1	0.278	1	0.917	0.729	0.374	0.357	1	0.138	0.418	0.691
CC(=O)Nc1cccc(-n2c(=O)n(C3CC3)c(=O)c3c(Nc4ccc(I)cc4F)n(C)c(=O)c(C)c32)c1 [Trametinib] + Cc1nc(-c2cn3c(n2)-c2ccc(-c4cnn(C(C)(C)C(N)=O)c4)cc2OCC3)n(C(C)C)n1 [Taselisib] (first compound max 1 µM, 7x7, partner max 10 µM)	0.607	0.933	0.722	0.666	0.76	0.829	0.763	0.671	0.803	0.88	0.733	0.795	0.955	0.977	0.535	0.905	0.168	0.559	0.532	1
